The text below walks through data of patent EP0519877B1, “3-Acylamino-2-pyrrolidinones as enhancers of the processes of learning and memory and pharmaceutical compositions containing same” (Sigma-Tau Industrie Farmaceutiche Riunite S.p.A., priority 1991, dated 1992).

The test system of this experiment is Male CD1 mice. The experiment in a line: Passive avoidance test following ECS-induced amnesia. Format: in vivo. The following applies: i.p., 30 minutes before training, retention assessed 24 hours later. Here is the method: In order to assess the antiamnesic activity the passive avoidance test in mice was used.
Male CD1 mice (Charles River) weighting 25-26 g fed on a normal diet were used for the ECS-induced amnesia test.
The compounds were administered i.p.at doses equimolar to 9 and 0.9 mg/kg […]. The compounds were dissolved in saline.
The apparatus for passive avoidance conditioning was a black plastic chamber (42 x 42 cm, height 40 cm) provided with a floor constructed of metal rods that could be electrified. From the front wall extended a white runway, 30 cm long and 10 cm wide provided with side walls 12 cm high, which led into the box through a guillotine door.
30 minutes following treatment with the compounds, the animals were placed on the runway. After one minute of adaptation, the door was raised and the time employed by the animal to enter the darkened box with all four feet was recorded.
Upon entry, the guillotine door was lowered and three seconds thereafter the rods were electrified, 0.24 mA for 2 seconds.
The mouse was then removed from the chamber and immediately administered an electroshock delivered through spring clips attached to the ears (square wave, intensity 20 mA, amplitude 0.6 msec, duration 0.5 s, frequency 50 Hz).
Immediately thereafter the animal was placed in the housing cage. Retention was assessed 24 hours later by placing the animal on the runway and again evaluating the latency in entering the chamber, using an end-point of 300 seconds (Bammer, loc.cit.).
In each experiment, two groups of animals in addition to the treated ones were used, that were defined as follows: • (1) ceiling control animals (treated with placebo and not subjected to amnesia treatment) to ensure that these animals not treated with the amnesia agent remembered the task; • (2) base-line control animals (treated with placebo and subjected to amnesia treatment) to ensure that ECS produced amnesia in the animals not treated with the compounds of the present invention.
The sum ΣAij encompasses all the possible pairs obtained by combining each term Xi with each term Xj.

Where [1] appears, read: dose equimolar to 0.9 mg/kg PIRACETAM
The mark [2] stands for this setting: dose equimolar to 9 mg/kg PIRACETAM

Molecules are shown by their SMILES.

For `N[C@H]1CCNC1=O` [ST 802, (S)-3-amino-2-pyrrolidinone, reference compound], the “AR (percentage of amnesia reversal)” value under setting [1] is on record as 24%. On to `O=C(N[C@H]1CCNC1=O)c1cccc(C(F)(F)F)c1` [ST 835, (S)-3-(3-trifluoromethylbenzoylamino)-2-pyrrolidinone], for which the “AR (percentage of amnesia reversal)” value was determined as 51% under setting [1] and 58% under setting [2].

On to `O=CN[C@H]1CCNC1=O` [ST 879, (S)-3-(formylamino)-2-pyrrolidinone], for which the “AR (percentage of amnesia reversal)” value runs as follows: under setting [1], 53%; under setting [2], 9%.
